For data set [1], the species on record is Homo sapiens. Kind of data set: Chaperone activity at GALNS p.R386C/p.F285 deletion mutant in mucopolysaccharidosis IVA patient-derived fibroblasts GM00593 assessed as reduction in lysosomal mass by measuring mean fluorescence intensity at 10 uM incubated for 36 hrs by deep red Lysotracker based flow cytometric analysis (reference value: 61.8 +/- 8.4%). Also noted: scale not given: the % may be the effect or the level left. (In general: A flow cytometer gives signals particle by particle.)

A short description of data set [2]: Protein binding in plasma of parkinson's disease patients. To be noted: human, read-out: PPB. The data set is classed as ADME, cell-free.
The species named for data set [3] is Homo sapiens. In words: Chaperone activity at GALNS p.R61W/p.W405_T406 deletion mutant in mucopolysaccharidosis IVA patient-derived fibroblasts GM01361 assessed as reduction in lysosomal mass by measuring mean fluorescence intensity at 0.01 uM incubated for 36 hrs by deep red Lysotracker based flow cytometric analysis (reference value: 48.3 +/- 7.7%). On the set-up: scale not given: the % may be the effect or the level left.

Data set [4] is described as follows: Total plasma concentration in parkinson's disease patients. To be noted: human. In kind it is ADME, cell-free.
The species entered for data set [5] is Homo sapiens. Kind of data set: Chaperone activity at GALNS p.R386C/p.F285 deletion mutant in mucopolysaccharidosis IVA patient-derived fibroblasts GM00593 assessed as fold increase in enzyme activity using 4MUGPS as substrate at 10 uM incubated for 48 hrs by fluorescence assay relative to control.
The target of data set [6] is T1, N-acetylgalactosamine-6-sulfatase (Homo sapiens) (UniProt P34059).
T1 sequence (whole entry): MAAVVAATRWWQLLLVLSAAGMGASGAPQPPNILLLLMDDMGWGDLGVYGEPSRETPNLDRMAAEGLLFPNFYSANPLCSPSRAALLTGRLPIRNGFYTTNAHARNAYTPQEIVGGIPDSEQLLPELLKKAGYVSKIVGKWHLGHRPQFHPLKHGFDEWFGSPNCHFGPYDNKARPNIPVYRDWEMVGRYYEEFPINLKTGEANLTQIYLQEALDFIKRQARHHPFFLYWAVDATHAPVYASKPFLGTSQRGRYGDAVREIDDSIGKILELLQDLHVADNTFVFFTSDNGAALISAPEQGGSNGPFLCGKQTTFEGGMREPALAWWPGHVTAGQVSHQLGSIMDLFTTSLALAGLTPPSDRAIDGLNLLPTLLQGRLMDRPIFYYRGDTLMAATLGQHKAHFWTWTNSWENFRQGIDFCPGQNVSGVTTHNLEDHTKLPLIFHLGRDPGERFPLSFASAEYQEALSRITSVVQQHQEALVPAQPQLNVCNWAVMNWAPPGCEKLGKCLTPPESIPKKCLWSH
In words: Chaperone activity at recombinant human GALNS expressed in HEK293 cells assessed as fold increase in extracellular enzyme activity using 4MUGPS as substrate at 10 uM incubated for 48 hrs by fluorescence assay relative to control. The data set is classed as cell-based.

The species named for data set [7] is Homo sapiens. Kind of data set: Chaperone activity at GALNS p.R61W/p.W405_T406 deletion mutant in mucopolysaccharidosis IVA patient-derived fibroblasts GM01361 assessed as fold increase in enzyme activity using 4MUGPS as substrate at 0.1 uM incubated for 48 hrs by fluorescence assay relative to control.
Data set [8] is filed under the species Homo sapiens. In words: Chaperone activity at GALNS p.A393S mutant in mucopolysaccharidosis IVA patient-derived fibroblasts GM00958 assessed as enzyme activity using 4MUGPS as substrate at 0.001 to 10 uM incubated for 48 hrs by fluorescence assay.
Data set [9] is filed under the species Homo sapiens. In words: Chaperone activity at GALNS p.R61W/p.W405_T406 deletion mutant in mucopolysaccharidosis patient-derived fibroblasts GM01361 assessed as reduction in lysosomal mass by measuring mean fluorescence intensity at 0.1 uM incubated for 36 hrs by deep red Lysotracker based flow cytometric analysis (reference value: 48.3 +/- 7.7%). On the set-up: scale not given: the % may be the effect or the level left.

The species entered for data set [10] is Homo sapiens. In words: Chaperone activity at GALNS p.R61W/p.W405_T406 deletion mutant in mucopolysaccharidosis IVA patient-derived fibroblasts GM01361 assessed as enzyme activity using 4MUGPS as substrate at 1 to 10 uM incubated for 48 hrs by fluorescence assay.
Data set [11] is filed under the species Homo sapiens. In words: Chaperone activity at GALNS p.R386C/p.F285 deletion mutant in mucopolysaccharidosis IVA patient-derived fibroblasts GM00593 assessed as reduction in lysosomal mass by measuring mean fluorescence intensity at 1 uM incubated for 36 hrs by deep red Lysotracker based flow cytometric analysis (reference value: 61.8 +/- 8.4%). On the set-up: scale not given: the % may be the effect or the level left.

Data set [12] addresses T1, N-acetylgalactosamine-6-sulfatase (Homo sapiens). In words: Chaperone activity at GALNS in human fibroblasts assessed as change in lysosomal mass at 0.01 to 10 uM incubated for 36 hrs by deep red Lysotracker based flow cytometric analysis.
The target is the same in data set [13]. In words: Chaperone activity at recombinant human GALNS expressed in HEK293 cells assessed as fold increase in extracellular enzyme activity using 4MUGPS as substrate at 1 uM incubated for 48 hrs by fluorescence assay relative to control. The data set is classed as cell-based.
Data set [14] shares this target. In words: Inhibition of recombinant human GALNS expressed in Pichia pastoris at 0.001 to 50 uM using 4MUGPS as substrate incubated for 18 hrs by fluorescence assay relative to control.

The text below walks through data of ChEMBL document CHEMBL4622962, “Bromocriptine as a Novel Pharmacological Chaperone for Mucopolysaccharidosis IV A” (ACS Med Chem Lett, 2020).

Structures are written as SMILES. The source made the active and inactive calls. No cut-off for these calls is given here.

Broadly, the inhibition is the drop in the measured response relative to a control, in per cent. Take `CC(C)C[C@H]1C(=O)N2CCC[C@H]2[C@]2(O)O[C@](NC(=O)[C@@H]3C=C4c5cccc6[nH]c(Br)c(c56)C[C@H]4N(C)C3)(C(C)C)C(=O)N12` [BROMOCRIPTINE]: the Activity in the data set filed under Homo sapiens [1] was found to be 10.5%; in the data set listed under Homo sapiens [3] it was 11.7%; in the data set listed under Homo sapiens [9] it was 7.3%; in the data set filed under Homo sapiens [11], 18.2%. Also, the fraction unbound in data set [2] lay within 0.04 to 0.1. In data set [4], this compound registered a concentration of 10 to 250 nM. For the same compound, the fold change (FC) in the data set listed under Homo sapiens [5] was 1.52; in data set [6] it was 1.48; in the data set filed under Homo sapiens [7], 1.5; in data set [13], 1.36. Moreover, the outcome (in the data set filed under Homo sapiens [8]; in the data set filed under Homo sapiens [10]; in data set [12]) was inactive. The inhibition in [14] was determined as 30%.
